Measured values published in patent publication US20250000858A1, “FGFR TYROSINE KINASE INHIBITORS FOR THE TREATMENT OF ADVANCED SOLID TUMORS” (JANSSEN PHARMACEUTICA NV, priority 2021, published 2025).

System: advanced solid tumors with FGFR mutations or fusions
Assay: Phase 2 RAGNAR study (NCT04083976): tumor response per RECIST v1.1 or RANO by IRC and investigator (ORR, DOR, DCR, CBR, PFS, OS, best overall response)
Type: in vivo, human
Conditions: for DOR of longest ongoing PR: + = censored, IA3; for Clinical Benefit Rate n(%) (95% CI) / Confirmed Objective Response Rate n(%) (95% CI) / Disease Control Rate n(%) (95% CI) / Median DOR (95% CI) / Median PFS (95% CI) / Median OS (95% CI): BPC; for Clinical Benefit Rate n(%) (95% CI) / Confirmed Objective Response Rate n(%) (95% CI) / Disease Control Rate n(%) (95% CI) / Median DOR (95% CI) / Median PFS (95% CI): IRC
Excerpt: Subjects ≥12 years of age with target FGFR mutations or any FGFR gene fusions were enrolled into the Broad Panel Cohort. […] A subgroup of subjects in the Broad Panel Cohort with a select panel of pre-specified FGFR markers were identified as the Core Panel Cohort (for analysis only). While the Broad Panel Cohort consists of target FGFR mutations and any fusions, the Core Panel Cohort consists of a select subset of FGFR mutations or fusions. Subjects with any other FGFR mutations that are not captured in the Broad Panel Cohort are included in the study as the Exploratory Cohort. A separate Cholangiocarcinoma Expansion Cohort enrolled subjects with target FGFR mutations or any FGFR gene fusion once the Broad Panel Cohort reached the cap of approximately 30 subjects for cholangiocarcinoma. […] Adolescent subjects enrolled in the Broad Panel Cohort (≥12 to <18 years) are considered part of the Broad Panel Cohort and the Pediatric Cohort.
(§1) Each dose was taken approximately at the same time each day, with or without food.
The Treated Population will consist of all subjects who receive at least 1 dose of study drug. The Treated Population is the primary population for efficacy and safety analyses. […] Adequate disease assessment is defined as having enough evidence to indicate that progression has or has not occurred.
Statistical Methods: For the Broad Panel Cohort, the primary endpoint was overall response rate (ORR) based on RECIST v1.1. or RANO as assessed by the IRC and was calculated with a 95% 2-sided exact confidence interval (CI). The primary endpoint was analyzed using data from the Treated Population (defined as all subjects who receive at least 1 dose of study drug) in the Broad Panel Cohort and the Core Panel Cohort. An error-spending function approach was used to split the significance level for the Broad Panel Cohort and the Core Panel Cohort.
as §1

[1] = CUP (Carcinoma of Unknown Primary), N=8
[2] = EDMTL (Endometrial Cancer), N=6
[3] = HNSCC (Squamous Cell Head and Neck Cancers), N=5
[4] = Others (tumor histologies with 1 subject treated), N=14
[5] = PANCR (Pancreatic Cancer), N=13
[6] = SALIV (Salivary Gland Cancer), N=5
[7] = nonsqNSCLC (Non-squamous NSCLC), N=7
[8] = BRST (breast cancer), N=7, efficacy analysis set, investigator assessment

COc1cc(OC)cc(N(CCNC(C)C)c2ccc3ncc(-c4cnn(C)c4)nc3c2)c1 [erdafitinib, N-(3,5-dimethoxy-phenyl)-N′-(1-methylethyl)-N-[3-(1-methyl-1H-pyrazol-4-yl)quinoxalin-6-yl]ethane-1,2-diamine]
DOR of longest ongoing PR (1 patient with endometrial cancer): ≥ 13.7 months | DOR of longest ongoing PR (1 patient with pancreatic cancer): ≥ 13.8 months | clinical benefit rate (CBR: CR+PR+SD>4 months) (69/124, efficacy analysis set): 55.6% | Objective Response Rate (BCC, N=1, efficacy analysis set, investigator assessment): 0 (NE, NE) % | Clinical Benefit Rate n(%) (95% CI) (BRST (Breast Cancer), N=14): 6 (42.9%) | Confirmed Objective Response Rate n(%) (95% CI) (BRST (Breast Cancer), N=14): 5 (35.7%) | Disease Control Rate n(%) (95% CI) (BRST (Breast Cancer), N=14): 9 (64.3%) | Median DOR (95% CI) (BRST (Breast Cancer), N=14): NE (NE, NE) | Median PFS (95% CI) (BRST (Breast Cancer), N=14): 4.17 (1.22, NE) months | Confirmed Objective Response Rate n(%) (95% CI) (CCA (Cholangiocarcinoma), N=31): 16 (51.6%) | Disease Control Rate n(%) (95% CI) (CCA (Cholangiocarcinoma), N=31): 30 (96.8%) | Median PFS (95% CI) (CCA (Cholangiocarcinoma), N=31): 8.25 (6.41, 9.72) months | Clinical Benefit Rate n(%) (95% CI) (CRC (Colorectal Cancer), N=6): 1 (16.7%) | Confirmed Objective Response Rate n(%) (95% CI) (CRC (Colorectal Cancer), N=6): 0 (NE, NE) % | Disease Control Rate n(%) (95% CI) (CRC (Colorectal Cancer), N=6): 2 (33.3%) | Median PFS (95% CI) (CRC (Colorectal Cancer), N=6): 1.15 (0.43, NE) months | Clinical Benefit Rate n(%) (95% CI) (CRVX (Cervical Cancer), N=4): 1 (25.0%) | Confirmed Objective Response Rate n(%) (95% CI) (CRVX (Cervical Cancer), N=4): 0 (NE, NE) % | Disease Control Rate n(%) (95% CI) (CRVX (Cervical Cancer), N=4): 3 (75.0%) | Median PFS (95% CI) (CRVX (Cervical Cancer), N=4): 3.52 (1.38, NE) months | Clinical Benefit Rate n(%) (95% CI) [1]: 5 (62.5%) | Confirmed Objective Response Rate n(%) (95% CI) [1]: 2 (25.0%) | Disease Control Rate n(%) (95% CI) [1]: 7 (87.5%) | Median DOR (95% CI) [1]: NE (2.66, NE) | Median PFS (95% CI) [1]: 4.78 (2.04, NE) months | Clinical Benefit Rate n(%) (95% CI) [2]: 3 (50.0%) | Confirmed Objective Response Rate n(%) (95% CI) [2]: 3 (50.0%) | Disease Control Rate n(%) (95% CI) [2]: 4 (66.7%) | Median PFS (95% CI) [2]: 4.11 (1.31, NE) months | Clinical Benefit Rate n(%) (95% CI) (ESOPH (Esophageal Cancer), N=6): 1 (16.7%) | Confirmed Objective Response Rate n(%) (95% CI) (ESOPH (Esophageal Cancer), N=6): 1 (16.7%) | Disease Control Rate n(%) (95% CI) (ESOPH (Esophageal Cancer), N=6): 2 (33.3%) | Median PFS (95% CI) (ESOPH (Esophageal Cancer), N=6): 1.31 (0.30, NE) months | Clinical Benefit Rate n(%) (95% CI) (GSTRC (Gastric Cancer), N=5): 0 (NE, NE) % | Confirmed Objective Response Rate n(%) (95% CI) (GSTRC (Gastric Cancer), N=5): 0 (NE, NE) % | Disease Control Rate n(%) (95% CI) (GSTRC (Gastric Cancer), N=5): 3 (60.0%) | Median PFS (95% CI) (GSTRC (Gastric Cancer), N=5): 2.30 (1.22, NE) months | Clinical Benefit Rate n(%) (95% CI) (HGG (High-grade Glioma), N=29): 10 (34.5%) | Confirmed Objective Response Rate n(%) (95% CI) (HGG (High-grade Glioma), N=29): 3 (10.3%) | Disease Control Rate n(%) (95% CI) (HGG (High-grade Glioma), N=29): 16 (55.2%) | Median DOR (95% CI) (HGG (High-grade Glioma), N=29): NE (NE, NE) | Median PFS (95% CI) (HGG (High-grade Glioma), N=29): 3.86 (2.96, 5.19) months | Clinical Benefit Rate n(%) (95% CI) [3]: 2 (40.0%) | Confirmed Objective Response Rate n(%) (95% CI) [3]: 2 (40.0%) | Disease Control Rate n(%) (95% CI) [3]: 4 (80.0%) | Median PFS (95% CI) [3]: 4.04 (0.39, NE) months | Clinical Benefit Rate n(%) (95% CI) (LGG (Low-grade Glioma), N=6): 3 (50.0%) | Confirmed Objective Response Rate n(%) (95% CI) (LGG (Low-grade Glioma), N=6): 2 (33.3%) | Disease Control Rate n(%) (95% CI) (LGG (Low-grade Glioma), N=6): 4 (66.7%) | Median DOR (95% CI) (LGG (Low-grade Glioma), N=6): NE (NE, NE) | Median PFS (95% CI) (LGG (Low-grade Glioma), N=6): NE (2.76, NE) | Clinical Benefit Rate n(%) (95% CI) (OVAR (Ovarian Cancer), N=4): 1 (25.0%) | Confirmed Objective Response Rate n(%) (95% CI) (OVAR (Ovarian Cancer), N=4): 1 (25.0%) | Disease Control Rate n(%) (95% CI) (OVAR (Ovarian Cancer), N=4): 2 (50.0%) | Median PFS (95% CI) (OVAR (Ovarian Cancer), N=4): 6.70 (NE, NE) months | Clinical Benefit Rate n(%) (95% CI) (Other, N=31): 18 (58.1%) | Confirmed Objective Response Rate n(%) (95% CI) (Other, N=31): 8 (25.8%) | Median PFS (95% CI) (Other, N=31): 5.52 (2.76, 8.61) months | Clinical Benefit Rate n(%) (95% CI) [4]: 7 (50.0%) | Confirmed Objective Response Rate n(%) (95% CI) [4]: 2 (14.3%) | Disease Control Rate n(%) (95% CI) [4]: 11 (78.6%) | Median DOR (95% CI) [4]: NE (NE, NE) | Median PFS (95% CI) [4]: 4.39 (1.41, NE) months | Clinical Benefit Rate n(%) (95% CI) [5]: 6 (46.2%) | Confirmed Objective Response Rate n(%) (95% CI) [5]: 5 (38.5%) | Disease Control Rate n(%) (95% CI) [5]: 12 (92.3%) | Median PFS (95% CI) [5]: 4.76 (3.02, NE) months | Clinical Benefit Rate n(%) (95% CI) (PCA (Prostate Cancer), N=2): 0 (NE, NE) % | Confirmed Objective Response Rate n(%) (95% CI) (PCA (Prostate Cancer), N=2): 0 (NE, NE) % | Disease Control Rate n(%) (95% CI) (PCA (Prostate Cancer), N=2): 0 (NE, NE) % | Median PFS (95% CI) (PCA (Prostate Cancer), N=2): 1.26 (1.18, NE) months | Clinical Benefit Rate n(%) (95% CI) [6]: 5 (100.0%) | Confirmed Objective Response Rate n(%) (95% CI) [6]: 4 (80.0%) | Disease Control Rate n(%) (95% CI) [6]: 5 (100.0%) | Median PFS (95% CI) [6]: NE (8.34, NE) | Clinical Benefit Rate n(%) (95% CI) (STS (Soft Tissue Sarcoma), N=2): 1 (50.0%) | Confirmed Objective Response Rate n(%) (95% CI) (STS (Soft Tissue Sarcoma), N=2): 0 (NE, NE) % | Disease Control Rate n(%) (95% CI) (STS (Soft Tissue Sarcoma), N=2): 1 (50.0%) | Median PFS (95% CI) (STS (Soft Tissue Sarcoma), N=2): NE (3.94, NE) | Clinical Benefit Rate n(%) (95% CI) (Total, N=178): 82 (46.1%) | Confirmed Objective Response Rate n(%) (95% CI) (Total, N=178): 52 (29.2%) | Disease Control Rate n(%) (95% CI) (Total, N=178): 129 (72.5%) | Median PFS (95% CI) (Total, N=178): 4.21 (4.04, 5.52) months | Clinical Benefit Rate n(%) (95% CI) [7]: 3 (42.9%) | Confirmed Objective Response Rate n(%) (95% CI) [7]: 3 (42.9%) | Disease Control Rate n(%) (95% CI) [7]: 4 (57.1%) | Median PFS (95% CI) [7]: 4.07 (1.38, NE) months | Clinical Benefit Rate n(%) (95% CI) (sqNSCLC (Squamous NSCLC), N=11): 3 (27.3%) | Confirmed Objective Response Rate n(%) (95% CI) (sqNSCLC (Squamous NSCLC), N=11): 3 (27.3%) | Disease Control Rate n(%) (95% CI) (sqNSCLC (Squamous NSCLC), N=11): 10 (90.9%) | Median PFS (95% CI) (sqNSCLC (Squamous NSCLC), N=11): 5.03 (2.37, NE) months | Median OS (95% CI) (BRST (Breast Cancer), N=14): 8.87 (4.86, NE) months | Median OS (95% CI) (CCA (Cholangiocarcinoma), N=31): 14.46 (12.09, NE) months | Median OS (95% CI) (CRC (Colorectal Cancer), N=6): 5.68 (1.22, NE) months | Median OS (95% CI) (CRVX (Cervical Cancer), N=4): 4.40 (3.48, NE) months | Median OS (95% CI) [1]: 11.99 (2.99, NE) months | Median OS (95% CI) [2]: NE (1.74, NE) | Median OS (95% CI) (ESOPH (Esophageal Cancer), N=6): 3.42 (1.28, NE) months | Median OS (95% CI) (GSTRC (Gastric Cancer), N=5): 3.29 (2.89, NE) months | Median OS (95% CI) (HGG (High-grade Glioma), N=29): 6.49 (3.75, 14.39) months | Median OS (95% CI) [3]: NE (0.39, NE) | Median OS (95% CI) (LGG (Low-grade Glioma), N=6): 10.94 (5.72, NE) months | Median OS (95% CI) (OVAR (Ovarian Cancer), N=4): NE (NE, NE) | Median OS (95% CI) (Other, N=31): NE (3.94, NE) | Median OS (95% CI) [4]: NE (3.29, NE) | Median OS (95% CI) [5]: 12.12 (7.26, NE) months | Median OS (95% CI) (PCA (Prostate Cancer), N=2): NE (3.48, NE) | Median OS (95% CI) [6]: NE (NE, NE) | Median OS (95% CI) (STS (Soft Tissue Sarcoma), N=2): NE (3.94, NE) | Median OS (95% CI) (Total, N=178): 10.94 (7.89, 14.26) months | Median OS (95% CI) [7]: NE (2.40, NE) | Median OS (95% CI) (sqNSCLC (Squamous NSCLC), N=11): 6.83 (2.37, NE) months | Median DOR [8]: 6.08 (NE, NE) months | Objective Response Rate [8]: 3 (42.9%) (9.9%, 81.6%)
